According to publication PMC12100716 (2025):

Key:
Assay in all cases: PELDOR (EPR) distance distributions
[1] = tested on: C30C47 (RNA, aptamer, Çm (rigid nitroxide spin-label cytidine analogue) at 30 and 47) GGACGACUGAACCGAAAGGUUCUUGGCUGCUUCGGCAGAGGUACGUCC; conditions: 130 mM glutamate buffer, pH 7.5; frozen solution; qualitative; small fraction of free aptamer remains
[2] = tested on: C12C47 (RNA, aptamer, Çm (rigid nitroxide spin-label cytidine analogue) at 12 and 47) GGACGACUGAACCGAAAGGUUCUUGGCUGCUUCGGCAGAGGUACGUCC; conditions: 130 mM glutamate buffer, pH 7.5; frozen solution; qualitative
[3] = tested on: C12C30 (RNA, aptamer, Çm (rigid nitroxide spin-label cytidine analogue) at 12 and 30) GGACGACUGAACCGAAAGGUUCUUGGCUGCUUCGGCAGAGGUACGUCC; conditions: 130 mM glutamate buffer, pH 7.5; frozen solution; qualitative

Measured: binding

CN(C)c1ccc2c(-c3ccc(C(=O)O)cc3C(=O)[O-])c3ccc(=[N+](C)C)cc-3oc2c1
yes: all assays above
